From patent US20060257480A1, “Pharmaceutical formulations of amyloid inhibiting compounds” (priority 2005, published 2006)

Legend:
[1] = Example 8 Part I: multiple rising oral dose pharmacokinetics of NC-758; type: in vivo; conditions: human, plasma, fasted; for AUC(0-inf) / AUC(0-t) / Cmax: mean; for AUC(0-t): read-out: AUC0-12h; for Tmax: median
Protocol: (§1) In the following examples and elsewhere herein, terms are as defined below. The pharmacokinetic parameters were derived by non-compartmental analysis using WinNonlin° (Pharsight Corporation, Mountain View, Calif.) or SAS® for Windows® (SAS Institute Inc., Cary, N.C.).
For doses at multiples of 100 mg, multiple 100 mg tables are administered. […] In Part I, 3-APS is administered as a single dose on Days 1 and 12 and on Days 2-11, twice daily at 12 hour intervals.

[2] = Example 13: single 150 mg (3 × 50 mg) oral dose pharmacokinetics in healthy elderly male volunteers, fasting and fed; type: in vivo, human; conditions: 150 mg (3 × 50 mg) single oral, Fasting Conditions, mean
Protocol: as §1
A single dose study of 3-APS Modified-Release Coated Tablets (of Table 5 above) in healthy elderly male volunteers following a 150 mg oral dose administration under fed conditions is conducted. For the 150 mg dose, three 50 mg tables are administered.

[3] = Example 7 Part I: single rising oral dose pharmacokinetics of NC-758 (Table 3 tablet), plasma 3-APS by LC-MS/MS; type: in vivo, human; conditions: for AUC(0-inf) / Tmax / Cmax / AUC(0-t): human, plasma, fasted; for AUC(0-inf) / Cmax / AUC(0-t): mean; for Tmax: median; for Cmax / AUC(0-t): male, po; for AUC(0-t): read-out: AUC0-Tlast
Source text: as §1
Part I—The pharmacokinetic profile and the effect of food on single rising oral doses of 3-APS free acid (modified-release enteric-coated tablet, as described in Table 3 above, hereinafter “NC-758”) in healthy male young (18-45 years) volunteers is determined. For doses at multiples of 100 mg, multiple 100 mg tables are administered. The pharmacokinetics of a single oral dose of NC-758 is also determined in a group of healthy male elderly (≧55 years old) volunteers. The test is a randomized, double-blind, placebo-controlled study to assess the pharmacokinetic profile of 4 single rising oral doses of NC-758 in healthy young (18-45 years) male subjects. Blood samples are collected during 24 h following dosing. Plasma concentrations of 3-APS are determined using a validated LC-MS/MS method.

[4] = Example 9 Part II: food effect on single 100 mg oral dose pharmacokinetics in elderly (Table 5 formulation); type: in vivo; conditions: both sexes, human, plasma; 100 mg single oral, elderly male and female, Fasting Arm; median
Protocol: as §1
Following single oral dosing of 100 mg 3-APS (modified-release coated formulation modified-release enteric-coated tablet as described in Table 5 above) to elderly (55 years or older) male and female subjects under fasted and fed (high fat) conditions, maximum plasma concentrations of 3-APS are attained at 5 and 10.5 h post-dose under fasted and fed conditions, respectively (Table 12A below and FIG. 5 showing the Mean Plasma Concentration-Time Profiles of 3-APS under Fasted and Fed Conditions following Single Oral Administration of 100 mg to Elderly Male and Female Subjects).

[5] = Example 7 Part II: food effect on single 200 mg oral dose pharmacokinetics (Table 3 formulation); type: in vivo, human; conditions: 200 mg single oral, young male
Protocol: as §1
Following single oral dosing of 200 mg 3-APS (modified-release coated formulation as described in Table 3 above) to young male subjects (aged between 18 and 45 years) under fasted and fed (high fat) conditions, maximum plasma concentrations of 3-APS are attained at 5 and 13.5 h post-dose under fasted and fed conditions, respectively (Table 9A).

[6] = dog, in vivo
Protocol: (§2) Furthermore, the non-hygroscopic nature of the acid form makes it desirable as active pharmaceutical ingredient. To further protect against any possible gastrointestinal intolerance that could result from the acid form, the tablets are enteric-coated and a modified-release agent is added to control any rapid release of the drug in the stomach and the intestine, respectively.

[7] = Example 10: 3-APS concentration in cerebrospinal fluid (CSF) of AD patients; type: in vivo, human; conditions: additional tests, treated patients
Source text: (Patients having a CSF level below the lower limit of quantitation of the assay are considered as zero.) CSF concentrations of 3-APS on Day 2 of Week 12 after twice daily oral administration for 12 weeks are as follows: […]

[8] = Example 9 Part I: single oral dose pharmacokinetics of NC-758-1 (Table 5 tablet) in healthy elderly; type: in vivo; conditions: both sexes, human, plasma, elderly male and female, fasted; for AUC(0-inf) / AUC(0-t) / Cmax: mean; for Tmax: median
Source text: as §1
Part I—The pharmacokinetic profile and the effect of food on single oral doses of 3-APS free acid (modified-release enteric-coated tablet as described in Table 5 above, hereinafter “NC-758-1“) in healthy male and female elderly (≧55 years) volunteers. For doses at multiples of 50 mg, multiple 50 mg tables are administered. The test is an open label, three-period crossover study to assess the pharmacokinetic profile of 3 single oral doses of NC-758-1 in healthy elderly (≧55 years) male and female subjects. The blood samples are collected during 24 h following dosing. Plasma concentrations of 3-APS are determined using a validated LC-MS/MS method.

Aβ42 = target: T1, Aβ42 (Homo sapiens, UniProt P05067); assay: Example 11 additional tests: CSF Aβ42 levels and Aβ42/Aβ40 ratio in treated patients; type: in vivo
T1 construct: from tissue; host or cells: cerebrospinal fluid of AD patients treated with 3-APS
T1 sequence (P05067 672-713 limits assumed): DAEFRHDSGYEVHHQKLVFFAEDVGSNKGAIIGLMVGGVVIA

[9] = Gastrointestinal tolerability of sodium salt capsules (certain studies); type: in vivo; conditions: solid dosage form (capsules)
Protocol: as §2

[10] = both sexes, 200 mg, 200 mg BID, Day 1, elderly (≧55 years) male and female
[11] = both sexes, 200 mg, 200 mg BID, Day 12, elderly (≧55 years) male and female
[12] = male, 100 mg, 100 mg BID, Day 1, young (18-45 years) male
[13] = male, 100 mg, 100 mg BID, Day 12, young (18-45 years) male
[14] = male, 200 mg, 200 mg BID, Day 1, young (18-45 years) male
[15] = male, 200 mg, 200 mg BID, Day 12, young (18-45 years) male
[16] = 100 mg single oral, young (18-45 years) male
[17] = 200 mg single oral, young (18-45 years) male
[18] = 300 mg single oral, young (18-45 years) male
[19] = 100 mg, 100 mg single oral, young (18-45 years) male
[20] = 200 mg, 200 mg single oral, elderly (>55 years) male
[21] = 200 mg, 200 mg single oral, young (18-45 years) male
[22] = 300 mg, 300 mg single oral, young (18-45 years) male
[23] = 400 mg, 400 mg single oral, young (18-45 years) male

Structure (SMILES): NCCCS(=O)(=O)O [3-APS, 3-amino-1-propanesulfonic acid]
- AUC(0-inf) ([1]; both sexes, 200 mg BID, Day 1, elderly (≧55 years) male and female): 5500 ng·h/mL
- AUC(0-t) ([1]; both sexes, 200 mg BID, Day 12, elderly (≧55 years) male and female): 6290 ng·h/mL
- Cmax [1, 10]: 897 ng/mL
- AUC(0-t) [1, 10]: 5020 ng·h/mL
- Tmax [1, 10]: 6 h
- Cmax [1, 11]: 880 ng/mL
- Tmax [1, 11]: 5 h
- AUC(0-inf) ([1]; 100 mg BID, Day 1, young (18-45 years) male): 1020 ng·h/mL
- AUC(0-inf) ([1]; 200 mg BID, Day 1, young (18-45 years) male): 3210 ng·h/mL
- Cmax [1, 12]: 282 ng/mL
- AUC(0-t) [1, 12]: 1330 ng·h/mL
- Tmax [1, 12]: 6 h
- Cmax [1, 13]: 256 ng/mL
- AUC(0-t) [1, 13]: 1430 ng·h/mL
- Tmax [1, 13]: 2.5 h
- Cmax [1, 14]: 517 ng/mL
- AUC(0-t) [1, 14]: 2860 ng·h/mL
- Tmax [1, 14]: 4 h
- Cmax [1, 15]: 581 ng/mL
- AUC(0-t) [1, 15]: 4150 ng·h/mL
- Tmax [1, 15]: 4 h
- AUC0-Tlast [2]: 3211 ng·h/mL
- AUC∞ [2]: 3284 ng·h/mL
- AUC0-t greater in elderly subjects compared to young subjects ([3]; 200 mg dose, Tables 9 and 10): approximately 70%
- Cmax greater in elderly subjects compared to young subjects ([3]; 200 mg dose, Tables 9 and 10): approximately 70%
- AUC(0-inf) [3, 16]: 1420 ng·h/mL
- Tmax [3, 16]: 5 h
- AUC(0-inf) [3, 17]: 2490 ng·h/mL
- Tmax [3, 17]: 5 h
- AUC(0-inf) [3, 18]: 4460 ng·h/mL
- Tmax [3, 18]: 5 h
- Tmax ([3]; 400 mg single oral, young (18-45 years) male): 2 h
- Cmax [3, 19]: 410 ng/mL
- AUC(0-t) [3, 19]: 1390 ng·h/mL
- Cmax [3, 20]: 1090 ng/mL
- AUC(0-t) [3, 20]: 4880 ng·h/mL
- Cmax [3, 21]: 661 ng/mL
- AUC(0-t) [3, 21]: 2900 ng·h/mL
- Cmax [3, 22]: 904 ng/mL
- AUC(0-t) [3, 22]: 4000 ng·h/mL
- Cmax [3, 23]: 5370 ng/mL
- AUC(0-t) [3, 23]: 16000 ng·h/mL
- Tmax [4]: 5 h
- Cmax ([5]; Fed Arm (high fat), mean): 631 ng/mL
- AUC(0-t) ([5]; human, plasma, Fasting Arm, mean, read-out: AUC0-Tlast): 2200 ng·h/mL
- Tmax ([5]; human, plasma, Fasting Arm, median): 5 h
- AUC(0-inf) ([5]; human, plasma, Fed Arm (high fat), mean): 4500 ng·h/mL
- tolerability [6]: better tolerated than the sodium salt form
- crossing of the blood/brain barrier [7]: crossed the blood/brain barrier
- AUC(0-inf) ([8]; 50 mg single oral): 1570 ng·h/mL
- AUC(0-t) ([8]; 50 mg single oral): 1540 ng·h/mL
- Cmax ([8]; 50 mg single oral): 469 ng/mL
- Tmax ([8]; 50 mg single oral): 5 h
- AUC(0-inf) ([8]; 100 mg single oral): 2870 ng·h/mL
- AUC(0-t) ([8]; 100 mg single oral): 3130 ng·h/mL
- Cmax ([8]; 100 mg single oral): 745 ng/mL
- Tmax ([8]; 100 mg single oral): 5 h
- AUC(0-inf) ([8]; 150 mg single oral): 4500 ng·h/mL
- AUC(0-t) ([8]; 150 mg single oral): 5300 ng·h/mL
- Tmax ([8]; 150 mg single oral): 5 h
- ratio of Aβ42/Aβ40 (Aβ42; CSF, treated patients (FIGS. 2, 3 and 4)): reduced
- CSF Aβ42 levels (Aβ42; treated patients (FIG. 1)): reduced

Structure (SMILES): NCCCS(=O)(=O)[O-].[Na+] [3-amino-1-propanesulfonic acid, sodium salt]
- gastrointestinal symptoms (i.e. nausea and vomiting) [9]: associated with gastrointestinal symptoms
